Assay results reported in US9216204B2, “Bone targeted therapeutics and methods of making and using the same” (MBC Pharma, Inc., priority 1998, dated 2015).

Experiments:
[1] = Mineral-binding ability by retention time on hydroxyapatite HPLC column; details: pH = 6.8, 2 mL/min
Method: B. […] The flow rate was 2 mL min^−1. […] Nucleoside mono-, di-, and triphosphates were recorded at a wavelength of 260 nm and zoledronate at a wavelength of 218 nm. The concentration of the eluted compounds was 0.3 mmol L^−1.

[2] = Binding of bisphosphonate conjugates on hydroxyapatite powder (UV absorbency of supernatant); details: pH 7.0
Method: A. To estimate the binding of BC on hydroxyapatite (mineral component of a bone) UV spectra of BC in buffer pH 7 were recorded before and after treatment with hydroxyapatite. To this end 10 μl of hydroxyapatite suspension in water was added to 1 ml of ˜10^−4 M solution of a BC in 0.1M Tris-HCl buffer, pH 7.0, 0.15 M NaCl and the mixture was intensively shaken for 10 minutes, and centrifuged for 5 minutes at 10,000 rpm in a microcentrifuge. The supernatant was separated and an absorbency spectrum of the supernatant was recorded.

[3] = 1500 mM sodium phosphate buffer

Retention time on hydroxyapatite column [1, 3] [min]	Retention time on hydroxyapatite column ([1]; 500 mM sodium phosphate buffer) [min]	SMILES	% of bound compound [2] [%]	% of nonbound compound [2] [%]
3.5	–	O=c1ccn([C@@H]2O[C@H](COP(=O)(O)OP(=O)(O)OP(=O)(O)O)[C@@H](O)[C@H]2O)c(=O)[nH]1 [UTP]	–	–
17.35	–	O=P(O)(O)C(O)(Cn1ccnc1)P(=O)(O)O [Zoledronate, zoledronate]	–	–
3.42	4.25	O=c1ccn([C@@H]2O[C@H](COP(=O)(O)O)[C@@H](O)[C@H]2O)c(=O)[nH]1 [UMP]	–	–
3.47	5.75	O=c1ccn([C@@H]2O[C@H](COP(=O)(O)OP(=O)(O)O)[C@@H](O)[C@H]2O)c(=O)[nH]1 [UDP]	–	–
–	–	O=c1[nH]c(=O)n(COCCOP(=O)(O)OP(=O)(O)CP(=O)(O)O)cc1F [II, Anhydride of 1-(2′-hydroxyethoxymethyl)-5-fluorouracil-2′-phosphate and methylenediphosphonic acid]	87.26	12.74

SMILES	Retention time on hydroxyapatite column [1, 3] [min]	Retention time on hydroxyapatite column ([1]; 500 mM sodium phosphate buffer) [min]	% of bound compound [2] [%]	% of nonbound compound [2] [%]
CC(O)(P(=O)(O)O)P(=O)(O)OP(=O)(O)OCC1OC(n2cc(F)c(=O)[nH]c2=O)C(O)C1O (stereo not drawn) [VI, anhydride of 5-Fluoro-uridine-5′-monophosphoric acid and 1-Hydroxyethylidene-1,1-diphosphonic acid]	6.00	17.72	69.66	30.34
